Calls of active or inactive are those of the source. No cut-off for these calls is given here.
Key:
[1] = tested on: Human immunodeficiency virus 1; test: Antiviral activity against HIV1 NL4-3 pseudovirus infected in human TZM-bl cells assessed as inhibition of viral entry into cells after 48 hrs by single-cycle infection assay; format: functional, organism-based; conditions: Human immunodeficiency virus 1, NL4-3, TZM-bl
[2] = target: Envelope glycoprotein gp160 (Human immunodeficiency virus type 1 group M subtype B (isolate HXB2)(HIV-1)) (UniProt P04578); test: Binding affinity to HIV-1 HXB2 gp41 N-terminal heptad repeat assessed as thermostability of compound after 30 mins by CD spectroscopic analysis; conditions: Human immunodeficiency virus 1
[3] = tested on: Human immunodeficiency virus 1; test: Antiviral activity against wild type HIV1 NL4-3 infected in human TZM-bl cells assessed as inhibition of viral replication after 2 days by luciferase reporter gene assay; format: functional, organism-based; conditions: Human immunodeficiency virus 1, NL4-3, TZM-bl, 48 h
[4] = target: Envelope glycoprotein gp160 (Human immunodeficiency virus type 1 group M subtype B (isolate HXB2)(HIV-1)) (UniProt P04578); test: Binding affinity to HIV-1 HXB2 gp41 N-terminal heptad repeat assessed as thermostability of compound at 10 uM after 30 mins by CD spectroscopic analysis; conditions: Human immunodeficiency virus 1
[5] = tested on: Human immunodeficiency virus 1; test: Antiviral activity against wild type HIV1 NL4-3 infected in human TZM-bl cells assessed as inhibition of viral entry into cells after 48 hrs by single-cycle infection assay; format: functional, organism-based; conditions: Human immunodeficiency virus 1, NL4-3, TZM-bl
[6] = tested on: Human immunodeficiency virus 1; test: Antiviral activity against ENF-resistant HIV1 NL4-3 harboring gp41 N-terminal heptad repeat D36G mutant infected in human TZM-bl cells assessed as inhibition of viral entry into cells after 48 hrs by single-cycle infection assay; format: functional, organism-based
[7] = tested on: Human immunodeficiency virus 1; test: Antiviral activity against ENF-resistant HIV1 NL4-3 harboring gp41 N-terminal heptad repeat I37T mutant infected in human TZM-bl cells assessed as inhibition of viral entry into cells after 48 hrs by single-cycle infection assay; format: functional, organism-based
[8] = tested on: Human immunodeficiency virus 1; test: Antiviral activity against ENF-resistant HIV1 NL4-3 harboring gp41 N-terminal heptad repeat V38A mutant infected in human TZM-bl cells assessed as inhibition of viral entry into cells after 48 hrs by single-cycle infection assay; format: functional, organism-based
[9] = tested on: Human immunodeficiency virus 1; test: Antiviral activity against ENF-resistant HIV1 NL4-3 harboring gp41 N-terminal heptad repeat V38M mutant infected in human TZM-bl cells assessed as inhibition of viral entry into cells after 48 hrs by single-cycle infection assay; format: functional, organism-based
[10] = tested on: Human immunodeficiency virus 1; test: Antiviral activity against ENF-resistant HIV1 NL4-3 harboring gp41 N-terminal heptad repeat Q40H mutant infected in human TZM-bl cells assessed as inhibition of viral entry into cells after 48 hrs by single-cycle infection assay; format: functional, organism-based
[11] = tested on: Human immunodeficiency virus 1; test: Antiviral activity against ENF-resistant HIV1 NL4-3 harboring gp41 N-terminal heptad repeat N43K mutant infected in human TZM-bl cells assessed as inhibition of viral entry into cells after 48 hrs by single-cycle infection assay; format: functional, organism-based
[12] = tested on: Human immunodeficiency virus 1; test: Antiviral activity against ENF-resistant HIV1 NL4-3 harboring gp41 N-terminal heptad repeat D36S/V38M double mutant infected in human TZM-bl cells assessed as inhibition of viral entry into cells after 48 hrs by single-cycle infection assay; format: functional, organism-based
[13] = tested on: Human immunodeficiency virus 1; test: Antiviral activity against ENF-resistant HIV1 NL4-3 harboring gp41 N-terminal heptad repeat I37T/N43K double mutant infected in human TZM-bl cells assessed as inhibition of viral entry into cells after 48 hrs by single-cycle infection assay; format: functional, organism-based
[14] = tested on: Human immunodeficiency virus 1; test: Antiviral activity against ENF-resistant HIV1 NL4-3 harboring gp41 N-terminal heptad repeat V38A/N42T double mutant infected in human TZM-bl cells assessed as inhibition of viral entry into cells after 48 hrs by single-cycle infection assay; format: functional, organism-based
[15] = tested on: Human immunodeficiency virus 1; test: Ratio of IC50 for ENF-resistant HIV1 NL4-3 harboring gp41 N-terminal heptad repeat D36G mutant to IC50 for wild type HIV1 NL4-3; format: functional
[16] = tested on: Human immunodeficiency virus 1; test: Ratio of IC50 for ENF-resistant HIV1 NL4-3 harboring gp41 N-terminal heptad repeat I37T mutant to IC50 for wild type HIV1 NL4-3; format: functional
[17] = tested on: Human immunodeficiency virus 1; test: Ratio of IC50 for ENF-resistant HIV1 NL4-3 harboring gp41 N-terminal heptad repeat V38A mutant to IC50 for wild type HIV1 NL4-3; format: functional
[18] = tested on: Human immunodeficiency virus 1; test: Ratio of IC50 for ENF-resistant HIV1 NL4-3 harboring gp41 N-terminal heptad repeat V38M mutant to IC50 for wild type HIV1 NL4-3; format: functional
[19] = tested on: Human immunodeficiency virus 1; test: Ratio of IC50 for ENF-resistant HIV1 NL4-3 harboring gp41 N-terminal heptad repeat Q40H mutant to IC50 for wild type HIV1 NL4-3; format: functional
[20] = tested on: Human immunodeficiency virus 1; test: Ratio of IC50 for ENF-resistant HIV1 NL4-3 harboring gp41 N-terminal heptad repeat N43K mutant to IC50 for wild type HIV1 NL4-3; format: functional
[21] = tested on: Human immunodeficiency virus 1; test: Ratio of IC50 for ENF-resistant HIV1 NL4-3 harboring gp41 N-terminal heptad repeat D36S/V38M double mutant to IC50 for wild type HIV1 NL4-3; format: functional
[22] = tested on: Human immunodeficiency virus 1; test: Ratio of IC50 for ENF-resistant HIV1 NL4-3 harboring gp41 N-terminal heptad repeat I37T/N43K double mutant to IC50 for wild type HIV1 NL4-3; format: functional
[23] = tested on: Human immunodeficiency virus 1; test: Ratio of IC50 for ENF-resistant HIV1 NL4-3 harboring gp41 N-terminal heptad repeat V38A/N42T double mutant to IC50 for wild type HIV1 NL4-3; format: functional
[24] = tested on: Human immunodeficiency virus 1; test: Ratio of IC50 for wild type HIV1 NL4-3 to IC50 for ENF-resistant HIV1 NL4-3 harboring gp41 N-terminal heptad repeat D36G mutant; format: functional
[25] = tested on: Human immunodeficiency virus 1; test: Ratio of IC50 for ENF-resistant HIV1 NL4-3 harboring gp41 N-terminal heptad repeat I37T mutant to IC50 for ENF-resistant HIV1 NL4-3 harboring gp41 N-terminal heptad repeat D36G mutant; format: functional
[26] = tested on: Human immunodeficiency virus 1; test: Ratio of IC50 for ENF-resistant HIV1 NL4-3 harboring gp41 N-terminal heptad repeat V38A mutant to IC50 for ENF-resistant HIV1 NL4-3 harboring gp41 N-terminal heptad repeat D36G mutant; format: functional
[27] = tested on: Human immunodeficiency virus 1; test: Ratio of IC50 for ENF-resistant HIV1 NL4-3 harboring gp41 N-terminal heptad repeat V38M mutant to IC50 for ENF-resistant HIV1 NL4-3 harboring gp41 N-terminal heptad repeat D36G mutant; format: functional
[28] = tested on: Human immunodeficiency virus 1; test: Ratio of IC50 for ENF-resistant HIV1 NL4-3 harboring gp41 N-terminal heptad repeat Q40H mutant to IC50 for ENF-resistant HIV1 NL4-3 harboring gp41 N-terminal heptad repeat D36G mutant; format: functional
[29] = tested on: Human immunodeficiency virus 1; test: Ratio of IC50 for ENF-resistant HIV1 NL4-3 harboring gp41 N-terminal heptad repeat N43K mutant to IC50 for ENF-resistant HIV1 NL4-3 harboring gp41 N-terminal heptad repeat D36G mutant; format: functional
[30] = tested on: Human immunodeficiency virus 1; test: Ratio of IC50 for ENF-resistant HIV1 NL4-3 harboring gp41 N-terminal heptad repeat D36S/V38M double mutant to IC50 for ENF-resistant HIV1 NL4-3 harboring gp41 N-terminal heptad repeat D36G mutant; format: functional
[31] = tested on: Human immunodeficiency virus 1; test: Ratio of IC50 for ENF-resistant HIV1 NL4-3 harboring gp41 N-terminal heptad repeat I37T/N43K double mutant to IC50 for ENF-resistant HIV1 NL4-3 harboring gp41 N-terminal heptad repeat D36G mutant; format: functional
[32] = tested on: Human immunodeficiency virus 1; test: Ratio of IC50 for ENF-resistant HIV1 NL4-3 harboring gp41 N-terminal heptad repeat V38A/N42T double mutant to IC50 for ENF-resistant HIV1 NL4-3 harboring gp41 N-terminal heptad repeat D36G mutant; format: functional
[33] = Thermostability of the compound in PBS assessed as melting temperature at 20 uM by CD spectroscopic analysis; format: physicochemical; conditions: buffer
[34] = target: Envelope glycoprotein gp160 (Human immunodeficiency virus type 1 group M subtype B (isolate HXB2)(HIV-1)) (UniProt P04578); test: Binding affinity to HIV-1 HXB2 gp41 N-terminal heptad repeat assessed as thermostability of protein-compound complex at 10 uM after 30 mins by CD spectroscopic analysis; conditions: Human immunodeficiency virus 1
[35] = tested on: Human immunodeficiency virus 1; test: Antiviral activity against HIV-1 ZM214M.15 pseudovirus infected in human TZM-bl cells assessed as inhibition of viral entry into cells after 48 hrs by single-cycle infection assay; format: functional, organism-based; conditions: Human immunodeficiency virus 1, ZM214M.15, TZM-bl
[36] = tested on: Human immunodeficiency virus 1; test: Antiviral activity against HIV-1 SF162 pseudovirus infected in human TZM-bl cells assessed as inhibition of viral entry into cells after 48 hrs by single-cycle infection assay; format: functional, organism-based; conditions: Human immunodeficiency virus 1, SF162, TZM-bl
[37] = tested on: Human immunodeficiency virus 1; test: Antiviral activity against HIV-1 SC42261.8 pseudovirus infected in human TZM-bl cells assessed as inhibition of viral entry into cells after 48 hrs by single-cycle infection assay; format: functional, organism-based; conditions: Human immunodeficiency virus 1, SC42261.8, TZM-bl
[38] = target: Envelope glycoprotein gp160 (Human immunodeficiency virus 1) (UniProt Q72502); test: Binding affinity to HIV1 NL4-3 gp41 N-terminal heptad repeat G36D mutant after 30 mins by CD spectroscopic analysis
[39] = target: Envelope glycoprotein gp160 (Human immunodeficiency virus 1) (UniProt Q72502); test: Binding affinity to HIV1 NL4-3 gp41 N-terminal heptad repeat I37T mutant after 30 mins by CD spectroscopic analysis
[40] = tested on: Envelope glycoprotein gp160 (Human immunodeficiency virus 1), Q72502 [V38A]; test: Binding affinity to HIV1 NL4-3 gp41 N-terminal heptad repeat V38A mutant after 30 mins by CD spectroscopic analysis
[41] = target: Envelope glycoprotein gp160 (Human immunodeficiency virus 1) (UniProt Q72502); test: Binding affinity to HIV1 NL4-3 gp41 N-terminal heptad repeat Q40H mutant after 30 mins by CD spectroscopic analysis
[42] = target: Envelope glycoprotein gp160 (Human immunodeficiency virus 1) (UniProt Q72502); test: Binding affinity to HIV1 NL4-3 gp41 N-terminal heptad repeat N43K mutant after 30 mins by CD spectroscopic analysis
[43] = target: Envelope glycoprotein gp160 (Human immunodeficiency virus 1) (UniProt Q72502); test: Binding affinity to HIV1 NL4-3 gp41 N-terminal heptad repeat I37T/N43K double mutant after 30 mins by CD spectroscopic analysis
[44] = target: Envelope glycoprotein gp160 (Human immunodeficiency virus 1) (UniProt Q72502); test: Binding affinity to HIV1 NL4-3 gp41 N-terminal heptad repeat V38A/N42T double mutant after 30 mins by CD spectroscopic analysis
[45] = target: Envelope glycoprotein gp160 (Human immunodeficiency virus type 1 group M subtype B (isolate HXB2)(HIV-1)) (UniProt P04578); test: Binding affinity to HIV-1 HXB2 gp41 N-terminal heptad repeat assessed as increase in 6-helix bundle thermostability at 10 uM after 30 mins by CD spectroscopic analysis; conditions: Human immunodeficiency virus 1
[46] = tested on: Serum; test: Metabolic stability in Sprague-Dawley rat serum at 4 mg/kg, ip measured at 0.5 to 4 hrs post dose; format: ADME, organism-based; conditions: in vivo

## H-TTWEAWDRAIAEYAARIEALIR-OH
[1]
  IC50: 955 nM
[2]
  Tm: 59.1 °C

## H-MTWEEWDKKIEEYTKKIEELIKKS-OH
[1]
  IC50: 1.29 nM
[3]
  IC50: 0.9 nM
[4]
  Tm: 78.2 °C

## enfuvirtide
[5]
  IC50: 90.2 nM
[6]
  IC50: 9.1 nM
[7]
  IC50: 618 nM
[8]
  IC50: 709 nM
[9]
  IC50: 268 nM
[10]
  IC50: 1450 nM
[11]
  IC50: 467 nM
[12]
  IC50: 240 nM
[13]
  IC50: > 2250 nM
[14]
  IC50: > 2250 nM
[15]
  Ratio IC50: 0.1
[16]
  Ratio IC50: 6.9
[17]
  Ratio IC50: 7.9
[18]
  Ratio IC50: 3
[19]
  Ratio IC50: 16.1
[20]
  Ratio IC50: 5.2
[21]
  Ratio IC50: 2.7
[22]
  Ratio IC50: >25
[23]
  Ratio IC50: >25
[24]
  Ratio IC50: 9.9
[25]
  Ratio IC50: 68
[26]
  Ratio IC50: 77.9
[27]
  Ratio IC50: 29.4
[28]
  Ratio IC50: 159.8
[29]
  Ratio IC50: 51.3
[30]
  Ratio IC50: 26.4
[31]
  Ratio IC50: 247.3
[32]
  Ratio IC50: 247.3

## H-MTWEAWDRAIAEYAARIEALIR-OH
[1]
  IC50: 86.7 nM
[2]
  Tm: 68.2 °C

## H-MTWEAWDRAIAEYAARIEALIRAAQEQQEKNEAALREL-OH
[33]
  Stability: Stable
[34]
  Tm: 88.1 °C
[1]
  IC50: 0.46 nM
[3]
  IC50: 0.25 nM
[35]
  IC50: 0.74 nM
[36]
  IC50: 4.98 nM
[37]
  IC50: 1.65 nM
[38]
  Activity: Active
[39]
  Activity: Active
[40]
  Activity: Active
[41]
  Activity: Active
[42]
  Activity: Active
[43]
  Activity: Active
[44]
  Activity: Active
[45]
  Activity: Active
[46]
  Stability: Unstable

From ChEMBL document CHEMBL3600303, “The N-Terminal T-T Motif of a Third-Generation HIV-1 Fusion Inhibitor Is Not Required for Binding Affinity and Antiviral Activity” (J Med Chem, 2015)
